Results from the supplement of paper PMC11061612.

How the values were obtained:
[1] = system: NCI-H522 (Lung Adenocarcinoma); assay: combination Emax (second highest fraction inhibited in the dose matrix, 72 h); higher = more inhibition; extreme values may be limits of the assay
Outline: (§1)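 Cell lines grown in DMEM/F12 or RPMI with 10% FBS were plated in 1536-well plates and held 24 hours at 37°C, 5% CO2 before 72 hours of exposure to two-drug dose matrices, with DMSO typically at 0.2%. CellTiter-Glo 2.0 luminescence gave viability, which was converted to inhibition. Vehicle wells were set to 0 and blank wells to 1. Combination Emax is the second-highest inhibition in the matrix, and Bliss excess is the observed combination effect minus the expected EA + EB − EA·EB, where EA and EB are the single-agent effects.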

[2] = system: COLO-668 (Small Cell Lung Carcinoma); assay: as above
Outline: as §1

[3] = system: SW982 (Other Solid Carcinomas); assay: as above
Outline: as §1

[4] = system: NCI-H1355 (Lung Adenocarcinoma); assay: as above
Outline: as §1

[5] = system: SK-LU-1 (Lung Adenocarcinoma); assay: as above
Outline: as §1

[6] = system: OE33 (Esophageal Adenocarcinoma); assay: as above
Outline: as §1

SK-N-AS (Neuroblastoma) = assay: as above
Outline: as §1

[7] = system: EFO-21 (Ovarian Carcinoma); assay: as above
Outline: as §1

[8] = system: SNU-387 (Hepatocellular Carcinoma); assay: as above
Outline: as §1

[9] = system: Ca-Ski (Cervical Carcinoma); assay: as above
Outline: as §1

[10] = system: DU-145 (Prostate Carcinoma); assay: as above
Outline: as §1

[11] = system: COLO-668 (Small Cell Lung Carcinoma); assay: Bliss excess, mean over the matrix (fraction); higher = more synergy
Outline: as §1

[12] = system: SW872 (Other Solid Carcinomas); assay: as above
Outline: as §1

[13] = system: NCI-H2122 (Lung Adenocarcinoma); assay: combination Emax (second highest fraction inhibited in the dose matrix, 72 h); higher = more inhibition; extreme values may be limits of the assay
Outline: as §1

[14] = system: HCC1500 (Breast Carcinoma); assay: as above
Outline: as §1

[15] = system: NCI-H1092 (Small Cell Lung Carcinoma); assay: as above
Outline: as §1

[16] = system: EJM (Plasma Cell Myeloma); assay: as above
Outline: as §1

[17] = system: HCC1937 (Breast Carcinoma); assay: as above
Outline: as §1

[18] = system: NCI-H1838 (Lung Adenocarcinoma); assay: as above
Outline: as §1

[19] = system: G-401 (Other Solid Carcinomas); assay: as above
Outline: as §1
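For Bliss excess, mean over the matrix in this document: after 72 h of two-drug dosing.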

Row | Compound | combination Emax [1] | combination Emax [2] | combination Emax [3] | combination Emax [4] | combination Emax [5] | combination Emax [6] | combination Emax (SK-N-AS (Neuroblastoma)) | combination Emax [7] | combination Emax [8] | combination Emax [9] | combination Emax [10] | Bliss excess [11] | Bliss excess [12] | combination Emax [13] | combination Emax [14] | combination Emax [15] | combination Emax [16] | combination Emax [17] | combination Emax [18] | combination Emax [19]
1 | O=C(c1cc(Cc2n[nH]c(=O)c3ccccc23)ccc1F)N1CCN(C(=O)C2CC2)CC1 [Olaparib] + COc1nnc2ccc(N3CCC(c4ccc(OCCN5CCN(C)C(=O)[C@H]5C)cc4)CC3)nn12 [AZD5153] (first compound max 10 µM, 7x7, partner max 1 µM) | 0.309 | 0.323 | 0.787 | 0.335 | 0.332 | 0.224 | 0.326 | 0.353 | 0.419 | 0.481 | 0.219 | -0.0335 | 0.0202 | – | – | – | – | – | – | –
2 | C=CCn1c(=O)c2cnc(Nc3ccc(N4CCN(C)CC4)cc3)nc2n1-c1cccc(C(C)(C)O)n1 [AZD1775] + CCc1c2c(nc3ccc(O)cc13)-c1cc3c(c(=O)n1C2)COC(=O)[C@]3(O)CC [SN-38] (first compound max 1 µM, partner max 0.3 µM) | 0.7 | 0.956 | 0.866 | 0.659 | 0.645 | 0.734 | 0.844 | 0.466 | 0.497 | 1 | 0.598 | -0.0448 | -0.0641 | – | – | – | – | – | – | –
3 | Cc1c2c(nn1C)CSCc1cc(n(C)n1)CSc1cc(c3ccccc3c1)OCCCc1c(C(=O)O)n(C)c3c-2c(Cl)ccc13 [AZD5991] + CC(=O)O[C@H]1C(=O)[C@@]2(C)[C@H]([C@H](OC(=O)c3ccccc3)[C@]3(O)C[C@H](OC(=O)[C@H](O)[C@@H](NC(=O)c4ccccc4)c4ccccc4)C(C)=C1C3(C)C)[C@]1(OC(C)=O)CO[C@@H]1C[C@@H]2O [Paclitaxel] (first compound max 1 µM, 7x7, partner max 3 µM) | 0.969 | 0.46 | 0.953 | 0.76 | 0.39 | 0.524 | 0.83 | 0.368 | 0.913 | 0.919 | 0.686 | 0.028 | 0.018 | – | – | – | – | – | – | –
4 | O=C(c1cc(Cc2n[nH]c(=O)c3ccccc23)ccc1F)N1CCN(C(=O)C2CC2)CC1 [Olaparib] + Cc1c2c(nn1C)CSCc1cc(n(C)n1)CSc1cc(c3ccccc3c1)OCCCc1c(C(=O)O)n(C)c3c-2c(Cl)ccc13 [AZD5991] (first compound max 10 µM, 7x7, partner max 1 µM) | 0.479 | 0.0291 | 0.491 | 0.146 | 0.216 | 0.0347 | 0.258 | 0.117 | 0.427 | 0.146 | 0.121 | -0.0495 | -0.0377 | – | – | – | – | – | – | –
5 | O=C(c1cc(Cc2n[nH]c(=O)c3ccccc23)ccc1F)N1CCN(C(=O)C2CC2)CC1 [Olaparib] + CN(CC[C@H](CSC1=CC=CC=C1)NC2=C(C=C(C=C2)S(=O)(=O)NC(=O)C3=CC=C(C=C3)N4CCC(CC4)[C@H](C5=CC=CC=C5C6=CC=C(C=C6)Cl)O)S(=O)(=O)C(F)(F)F)CCO [AZD4320] (first compound max 10 µM, 7x7, partner max 1 µM) | 0.0607 | 0.823 | 0.709 | 0.198 | 0.48 | 0.105 | 0.112 | 0.172 | 0.304 | 0.26 | 0.0992 | 0.0025 | -0.0189 | – | – | – | – | – | – | –
6 | O=C(c1cc(Cc2n[nH]c(=O)c3ccccc23)ccc1F)N1CCN(C(=O)C2CC2)CC1 [Olaparib] + CC1(C)CCC(CN2CCN(c3ccc(C(=O)NS(=O)(=O)c4ccc(NCC5CCOCC5)c([N+](=O)[O-])c4)c(Oc4cnc5[nH]ccc5c4)c3)CC2)=C(c2ccc(Cl)cc2)C1 [Venetoclax] (first compound max 10 µM, 7x7, partner max 1 µM) | 0.0786 | 0.255 | 0.432 | 0.172 | 0.2 | 0.139 | 0.106 | 0.0952 | 0.256 | 0.162 | 0.126 | -0.0261 | -0.023 | – | – | – | – | – | – | –
7 | C[C@@H](Oc1cc(-c2cnn(C3CCNCC3)c2)cnc1N)c1c(Cl)ccc(F)c1Cl [Crizotinib] + Cn1cnc2c(F)c(Nc3ccc(Br)cc3Cl)c(C(=O)NOCCO)cc21 [Selumetinib] (first compound max 10 µM, 7x7, partner max 10 µM) | 0.117 | 0.852 | 0.973 | 0.388 | 0.34 | 0.539 | 0.585 | 0.224 | 0.89 | 0.551 | 0.12 | 0.0221 | -0.0107 | – | – | – | – | – | – | –
8 | CCc1c2c(nc3ccc(O)cc13)-c1cc3c(c(=O)n1C2)COC(=O)[C@]3(O)CC [SN-38] + CN(C)CCCOc1ccc(-c2ccc3ncc4c(c3c2)n(C2CCOCC2)c(=O)n4C)cn1 [AZD0156] (first compound max 0.3 µM, 7x7, partner max 1 µM) | 0.43 | 0.961 | 0.803 | 0.361 | – | 0.642 | 0.737 | 0.529 | 0.229 | 0.99 | 0.742 | -0.0198 | 0.0048 | 0.843 | 0.708 | 0.323 | 0.903 | 0.487 | 0.607 | 0.596
9 | CC1(C)CCC(CN2CCN(c3ccc(C(=O)NS(=O)(=O)c4ccc(NCC5CCOCC5)c([N+](=O)[O-])c4)c(Oc4cnc5[nH]ccc5c4)c3)CC2)=C(c2ccc(Cl)cc2)C1 [Venetoclax] + C1CN(CCC1(C(=O)N[C@@H](CCO)C2=CC=C(C=C2)Cl)N)C3=NC=NC4=C3C=CN4 [Capivasertib] (first compound max 1 µM, 7x7, partner max 3 µM) | 0.133 | 0.469 | 0.256 | 0.268 | – | 0.184 | 0.203 | 0.222 | 0.23 | 0.415 | 0.2 | 0.0066 | -0.0588 | 0.498 | 0.704 | 0.354 | 0.255 | 0.373 | 0.283 | 0.518
10 | CC1(C)CCC(CN2CCN(c3ccc(C(=O)NS(=O)(=O)c4ccc(NCC5CCOCC5)c([N+](=O)[O-])c4)c(Oc4cnc5[nH]ccc5c4)c3)CC2)=C(c2ccc(Cl)cc2)C1 [Venetoclax] + CCN(CCO)CCCOc1ccc2c(Nc3cc(CC(=O)Nc4cccc(F)c4)[nH]n3)ncnc2c1 [AZD2811] (first compound max 1 µM, 7x7, partner max 1 µM) | 0.217 | 0.618 | 0.55 | 0.323 | – | 0.174 | 0.434 | 0.375 | 0.215 | 0.346 | 0.157 | 0.0051 | -0.0179 | 0.702 | 0.855 | 0.39 | 0.261 | 0.264 | 0.226 | 0.483
11 | CC1(C)CCC(CN2CCN(c3ccc(C(=O)NS(=O)(=O)c4ccc(NCC5CCOCC5)c([N+](=O)[O-])c4)c(Oc4cnc5[nH]ccc5c4)c3)CC2)=C(c2ccc(Cl)cc2)C1 [Venetoclax] + C[C@@H](Nc1cc(F)cc(F)c1)c1cc(C(=O)N(C)C)cc2c(=O)cc(N3CCOCC3)oc12 [AZD8186] (first compound max 1 µM, 7x7, partner max 3 µM) | 0.0652 | 0.438 | 0.382 | 0.196 | – | 0.211 | 0.0826 | 0.248 | 0.21 | 0.114 | 0.153 | 0.0418 | -0.0247 | 0.174 | 0.736 | 0.384 | 0.278 | 0.271 | 0.0996 | 0.345
12 | CC(=O)Nc1cccc(-n2c(=O)n(C3CC3)c(=O)c3c(Nc4ccc(I)cc4F)n(C)c(=O)c(C)c32)c1 [Trametinib] + Cc1nc(-c2cn3c(n2)-c2ccc(-c4cnn(C(C)(C)C(N)=O)c4)cc2OCC3)n(C(C)C)n1 [Taselisib] (first compound max 1 µM, 7x7, partner max 10 µM) | 0.245 | 0.96 | 0.83 | 0.69 | – | 0.84 | 0.73 | 0.618 | 1 | 0.816 | 0.411 | 0.289 | 0.0847 | 1 | 0.319 | 0.161 | 0.488 | 0.722 | 0.476 | 0.958
13 | CC1(C)CCC(CN2CCN(c3ccc(C(=O)NS(=O)(=O)c4ccc(NCC5CCOCC5)c([N+](=O)[O-])c4)c(Oc4cnc5[nH]ccc5c4)c3)CC2)=C(c2ccc(Cl)cc2)C1 [Venetoclax] + Cc1cc2ncnn2cc1Nc1ncc2c(n1)n(C1CCOCC1)c(=O)n2C [AZD7648] (first compound max 1 µM, 7x7, partner max 10 µM) | 0.112 | 0.447 | 0.27 | 0.346 | – | 0.154 | 0.295 | 0.28 | 0.167 | 0.209 | 0.137 | 0.0355 | -0.0599 | 0.284 | 0.823 | 0.317 | 0.238 | 0.244 | 0.344 | 0.424
